From ChEMBL document CHEMBL3046161, “Synthesis of potential antitubercular and antimicrobial s-triazine-based scaffolds via Suzuki cross-coupling reaction” (2013)
≈ marks a conversion by molar mass, not a printed value.

Experiments:
Assay type in all cases: functional
Pseudomonas aeruginosa [1] = experiment: Antibacterial activity against Pseudomonas aeruginosa MTCC 741 assessed as growth inhibition at 3.12 to 50 ug/mL after 24 hr by agar disk diffusion method
Aspergillus fumigatus [2] = experiment: Antifungal activity against Aspergillus fumigatus MTCC 343 assessed as growth inhibition at 3.12 to 50 ug/mL after 24 hr by agar disk diffusion method
[3] = system: Mycobacterium tuberculosis; experiment: Antimycobacterial activity against Mycobacterium tuberculosis H37Rv assessed as growth inhibition measured within 10 days by BACTEC MGIT method; settings: 240 h
Klebsiella pneumoniae [4] = experiment: Antibacterial activity against Klebsiella pneumoniae MTCC 109 assessed as growth inhibition at 3.12 to 50 ug/mL after 24 hr by agar disk diffusion method
Proteus vulgaris [5] = experiment: Antibacterial activity against Proteus vulgaris MTCC 1771 assessed as growth inhibition after 24 hr by agar streak dilution method; settings: MTCC 1771, 24 h
Shigella flexneri [6] = experiment: Antibacterial activity against Shigella flexneri MTCC 1457 assessed as growth inhibition after 24 hr by agar streak dilution method; settings: MTCC 1457, 24 h
Aspergillus niger [7] = experiment: Antifungal activity against Aspergillus niger MTCC 282 assessed as growth inhibition after 48 hr by agar streak dilution method; settings: MTCC 282, 48 h
Staphylococcus aureus [8] = experiment: Antibacterial activity against Staphylococcus aureus MTCC 96 assessed as growth inhibition at 3.12 to 50 ug/mL after 24 hr by agar disk diffusion method
Aspergillus fumigatus [9] = experiment: Antifungal activity against Aspergillus fumigatus MTCC 343 assessed as growth inhibition after 48 hr by agar streak dilution method; settings: MTCC 343, 48 h
[10] = system: Mycobacterium tuberculosis; experiment: Antimycobacterial activity against Mycobacterium tuberculosis H37Rv assessed as growth inhibition after 12 to 28 days by Lowenstein and Jensen agar dilution method
Klebsiella pneumoniae [11] = experiment: Antibacterial activity against Klebsiella pneumoniae MTCC 109 assessed as growth inhibition after 24 hr by agar streak dilution method; settings: MTCC 109, 24 h
Escherichia coli [12] = experiment: Antibacterial activity against Escherichia coli MTCC 739 assessed as growth inhibition at 3.12 to 50 ug/mL after 24 hr by agar disk diffusion method
Pseudomonas aeruginosa [13] = experiment: Antibacterial activity against Pseudomonas aeruginosa MTCC 741 assessed as growth inhibition after 24 hr by agar streak dilution method; settings: MTCC 741, 24 h
Candida albicans [14] = experiment: Antifungal activity against Candida albicans MTCC 183 assessed as growth inhibition at 3.12 to 50 ug/mL after 24 hr by agar disk diffusion method
Staphylococcus aureus [15] = experiment: Antibacterial activity against Staphylococcus aureus MTCC 96 assessed as growth inhibition after 24 hr by agar streak dilution method; settings: MTCC 96, 24 h
[16] = system: Mycobacterium tuberculosis; experiment: Antimycobacterial activity against Mycobacterium tuberculosis H37Rv assessed as growth inhibition at MIC after 12 to 28 days by Lowenstein and Jensen agar dilution method
Bacillus cereus [17] = experiment: Antibacterial activity against Bacillus cereus MTCC 430 assessed as growth inhibition after 24 hr by agar streak dilution method; settings: MTCC 430, 24 h
Aspergillus clavatus [18] = experiment: Antifungal activity against Aspergillus clavatus MTCC 1323 assessed as growth inhibition at 3.12 to 50 ug/mL after 24 hr by agar disk diffusion method
Candida albicans [19] = experiment: Antifungal activity against Candida albicans MTCC 183 assessed as growth inhibition after 48 hr by agar streak dilution method; settings: MTCC 183, 48 h
Salmonella typhi [20] = experiment: Antibacterial activity against Salmonella enterica subsp. enterica serovar Typhi MTCC 733 assessed as growth inhibition after 24 hr by agar streak dilution method; settings: MTCC 733, 24 h
Escherichia coli [21] = experiment: Antibacterial activity against Escherichia coli MTCC 739 assessed as growth inhibition after 24 hr by agar streak dilution method; settings: MTCC 739, 24 h
Shigella flexneri [22] = experiment: Antibacterial activity against Shigella flexneri MTCC 1457 assessed as growth inhibition at 3.12 to 50 ug/mL after 24 hr by agar disk diffusion method
Bacillus cereus [23] = experiment: Antibacterial activity against Bacillus cereus MTCC 430 assessed as growth inhibition at 3.12 to 50 ug/mL after 24 hr by agar disk diffusion method
Proteus vulgaris [24] = experiment: Antibacterial activity against Proteus vulgaris MTCC 1771 assessed as growth inhibition at 3.12 to 50 ug/mL after 24 hr by agar disk diffusion method
Aspergillus niger [25] = experiment: Antifungal activity against Aspergillus niger MTCC 282 assessed as growth inhibition at 3.12 to 50 ug/mL after 24 hr by agar disk diffusion method
Aspergillus clavatus [26] = experiment: Antifungal activity against Aspergillus clavatus MTCC 1323 assessed as growth inhibition after 48 hr by agar streak dilution method; settings: MTCC 1323, 48 h
Salmonella typhi [27] = experiment: Antibacterial activity against Salmonella enterica subsp. enterica serovar Typhi MTCC 733 assessed as growth inhibition at 3.12 to 50 ug/mL after 24 hr by agar disk diffusion method

With `CC1CC(C)CN(c2nc(-c3ccc(NCC(=O)Nc4ccc(I)cc4)cc3)nc(N3CC(C)CC(C)C3)n2)C1` (stereo not drawn) the “inhibition zone (IZ)” value (Pseudomonas aeruginosa [1]) was 24 mm, the “inhibition zone (IZ)” value (Aspergillus fumigatus [2]) was 16 mm and the MIC [3] was over 6.25 µg/mL. The “inhibition zone (IZ)” value (Klebsiella pneumoniae [4]) was 23 mm, the MIC (Proteus vulgaris [5]) was 25 µg/mL (≈ 38.2 µM) and the MIC (Shigella flexneri [6]) was 50 µg/mL (≈ 76.5 µM). For the same compound, the MIC (Aspergillus niger [7]) was 50 µg/mL (≈ 76.5 µM), the “inhibition zone (IZ)” value (Staphylococcus aureus [8]) was 17 mm and the MIC (Aspergillus fumigatus [9]) was 50 µg/mL (≈ 76.5 µM). For the same compound, the MIC [10] was 250 µg/mL (≈ 382 µM), the MIC (Klebsiella pneumoniae [11]) was 50 µg/mL (≈ 76.5 µM) and the “inhibition zone (IZ)” value (Escherichia coli [12]) was under 10 mm. The MIC (Pseudomonas aeruginosa [13]) was 25 µg/mL (≈ 38.2 µM), the “inhibition zone (IZ)” value (Candida albicans [14]) was under 10 mm and the MIC (Staphylococcus aureus [15]) was 50 µg/mL (≈ 76.5 µM). For the same compound, the “growth inhibition (GI)” value [16] was 95%, the MIC (Bacillus cereus [17]) was 50 µg/mL (≈ 76.5 µM) and the “inhibition zone (IZ)” value (Aspergillus clavatus [18]) was under 10 mm. For the same compound, the MIC (Candida albicans [19]) was over 50 µg/mL, the MIC (Salmonella typhi [20]) was 50 µg/mL (≈ 76.5 µM) and the MIC (Escherichia coli [21]) was 50 µg/mL (≈ 76.5 µM). The “inhibition zone (IZ)” value (Shigella flexneri [22]) was 20 mm, the “inhibition zone (IZ)” value (Bacillus cereus [23]) was 16 mm and the “inhibition zone (IZ)” value (Proteus vulgaris [24]) was 23 mm. The “inhibition zone (IZ)” value (Aspergillus niger [25]) was under 10 mm, the MIC (Aspergillus clavatus [26]) was over 50 µg/mL and the “inhibition zone (IZ)” value (Salmonella typhi [27]) was 17 mm.

In the case of `CC1CC(C)CN(c2nc(-c3ccc(NCC(=O)Nc4ccc([N+](=O)[O-])cc4)cc3)nc(N3CC(C)CC(C)C3)n2)C1` (stereo not drawn), the “inhibition zone (IZ)” value (Pseudomonas aeruginosa [1]) was 20 mm, the “inhibition zone (IZ)” value (Aspergillus fumigatus [2]) was 18 mm and the MIC [3] was over 6.25 µg/mL. The “inhibition zone (IZ)” value (Klebsiella pneumoniae [4]) was 12 mm, the MIC (Proteus vulgaris [5]) was 50 µg/mL (≈ 87.3 µM) and the MIC (Shigella flexneri [6]) was 50 µg/mL (≈ 87.3 µM). The MIC (Aspergillus niger [7]) was 50 µg/mL (≈ 87.3 µM), the “inhibition zone (IZ)” value (Staphylococcus aureus [8]) was 20 mm and the MIC (Aspergillus fumigatus [9]) was 50 µg/mL (≈ 87.3 µM). The MIC [10] was 100 µg/mL (≈ 175 µM), the MIC (Klebsiella pneumoniae [11]) was 50 µg/mL (≈ 87.3 µM) and the “inhibition zone (IZ)” value (Escherichia coli [12]) was 13 mm. The MIC (Pseudomonas aeruginosa [13]) was 50 µg/mL (≈ 87.3 µM), the “inhibition zone (IZ)” value (Candida albicans [14]) was 13 mm and the MIC (Staphylococcus aureus [15]) was 12.5 µg/mL (≈ 21.8 µM). The “growth inhibition (GI)” value [16] was 94%, the MIC (Bacillus cereus [17]) was 50 µg/mL (≈ 87.3 µM) and the “inhibition zone (IZ)” value (Aspergillus clavatus [18]) was 24 mm. For the same compound, the MIC (Candida albicans [19]) was 50 µg/mL (≈ 87.3 µM), the MIC (Salmonella typhi [20]) was 50 µg/mL (≈ 87.3 µM) and the MIC (Escherichia coli [21]) was 50 µg/mL (≈ 87.3 µM). The “inhibition zone (IZ)” value (Shigella flexneri [22]) was 17 mm, the “inhibition zone (IZ)” value (Bacillus cereus [23]) was 16 mm and the “inhibition zone (IZ)” value (Proteus vulgaris [24]) was 13 mm. For the same compound, the “inhibition zone (IZ)” value (Aspergillus niger [25]) was 18 mm, the MIC (Aspergillus clavatus [26]) was 50 µg/mL (≈ 87.3 µM) and the “inhibition zone (IZ)” value (Salmonella typhi [27]) was 15 mm.

In the case of `CC1CC(C)CN(c2nc(-c3ccc(NCC(=O)Nc4ccc(C#N)cc4)cc3)nc(N3CC(C)CC(C)C3)n2)C1` (stereo not drawn), the “inhibition zone (IZ)” value (Pseudomonas aeruginosa [1]) was 21 mm, the “inhibition zone (IZ)” value (Aspergillus fumigatus [2]) was 11 mm and the MIC [3] was over 6.25 µg/mL. For the same compound, the “inhibition zone (IZ)” value (Klebsiella pneumoniae [4]) was 28 mm, the MIC (Proteus vulgaris [5]) was 50 µg/mL (≈ 90.5 µM) and the MIC (Shigella flexneri [6]) was 50 µg/mL (≈ 90.5 µM). For the same compound, the MIC (Aspergillus niger [7]) was 50 µg/mL (≈ 90.5 µM), the “inhibition zone (IZ)” value (Staphylococcus aureus [8]) was 19 mm and the MIC (Aspergillus fumigatus [9]) was 50 µg/mL (≈ 90.5 µM). For the same compound, the MIC [10] was 62.5 µg/mL (≈ 113 µM), the MIC (Klebsiella pneumoniae [11]) was 12.5 µg/mL (≈ 22.6 µM) and the “inhibition zone (IZ)” value (Escherichia coli [12]) was 20 mm. For the same compound, the MIC (Pseudomonas aeruginosa [13]) was 50 µg/mL (≈ 90.5 µM), the “inhibition zone (IZ)” value (Candida albicans [14]) was under 10 mm and the MIC (Staphylococcus aureus [15]) was 12.5 µg/mL (≈ 22.6 µM). The “growth inhibition (GI)” value [16] was 96%, the MIC (Bacillus cereus [17]) was 50 µg/mL (≈ 90.5 µM) and the “inhibition zone (IZ)” value (Aspergillus clavatus [18]) was under 10 mm. It also gave an MIC (Candida albicans [19]) of over 50 µg/mL, an MIC (Salmonella typhi [20]) of 50 µg/mL (≈ 90.5 µM) and an MIC (Escherichia coli [21]) of 25 µg/mL (≈ 45.2 µM). The “inhibition zone (IZ)” value (Shigella flexneri [22]) was 15 mm, the “inhibition zone (IZ)” value (Bacillus cereus [23]) was 19 mm and the “inhibition zone (IZ)” value (Proteus vulgaris [24]) was 19 mm. For the same compound, the “inhibition zone (IZ)” value (Aspergillus niger [25]) was under 10 mm, the MIC (Aspergillus clavatus [26]) was over 50 µg/mL and the “inhibition zone (IZ)” value (Salmonella typhi [27]) was 20 mm.

With `Cc1ccc(NC(=O)CNc2ccc(-c3nc(N4CC(C)CC(C)C4)nc(N4CC(C)CC(C)C4)n3)cc2)cc1` (stereo not drawn) the “inhibition zone (IZ)” value (Pseudomonas aeruginosa [1]) was 17 mm, the “inhibition zone (IZ)” value (Aspergillus fumigatus [2]) was under 10 mm and the MIC [3] was over 6.25 µg/mL. For the same compound, the “inhibition zone (IZ)” value (Klebsiella pneumoniae [4]) was under 10 mm, the MIC (Proteus vulgaris [5]) was 50 µg/mL (≈ 92.3 µM) and the MIC (Shigella flexneri [6]) was 50 µg/mL (≈ 92.3 µM). For the same compound, the MIC (Aspergillus niger [7]) was 50 µg/mL (≈ 92.3 µM), the “inhibition zone (IZ)” value (Staphylococcus aureus [8]) was under 10 mm and the MIC (Aspergillus fumigatus [9]) was over 50 µg/mL. For the same compound, the MIC [10] was 250 µg/mL (≈ 461 µM), the MIC (Klebsiella pneumoniae [11]) was 50 µg/mL (≈ 92.3 µM) and the “inhibition zone (IZ)” value (Escherichia coli [12]) was 13 mm. For the same compound, the MIC (Pseudomonas aeruginosa [13]) was 50 µg/mL (≈ 92.3 µM), the “inhibition zone (IZ)” value (Candida albicans [14]) was 11 mm and the MIC (Staphylococcus aureus [15]) was 50 µg/mL (≈ 92.3 µM). For the same compound, the “growth inhibition (GI)” value [16] was 95%, the MIC (Bacillus cereus [17]) was 50 µg/mL (≈ 92.3 µM) and the “inhibition zone (IZ)” value (Aspergillus clavatus [18]) was under 10 mm. It also gave an MIC (Candida albicans [19]) of 50 µg/mL (≈ 92.3 µM), an MIC (Salmonella typhi [20]) of 50 µg/mL (≈ 92.3 µM) and an MIC (Escherichia coli [21]) of 50 µg/mL (≈ 92.3 µM). The “inhibition zone (IZ)” value (Shigella flexneri [22]) was 11 mm, the “inhibition zone (IZ)” value (Bacillus cereus [23]) was 14 mm and the “inhibition zone (IZ)” value (Proteus vulgaris [24]) was 16 mm. For the same compound, the “inhibition zone (IZ)” value (Aspergillus niger [25]) was under 10 mm, the MIC (Aspergillus clavatus [26]) was over 50 µg/mL and the “inhibition zone (IZ)” value (Salmonella typhi [27]) was 18 mm.
